From patent US11020395B2, “Cycloalkyl substituted triazole compounds as agonists of the APJ receptor” (AMGEN INC., priority 2016, dated 2021)

Molecular target: human APJ receptor (Homo sapiens (Human), UniProt P35414)
Experiment: [35S]GTPγS binding assay on membranes from CHO cells stably expressing human APJ receptor
Format: biochemical
Settings: [35S]GTPγS SPA, read-out: Activity hAPJ SPA EC50 IP
How it was run: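 Membranes from CHO cells stably expressing FLAG-tagged human APJ were incubated with [35S]GTPγS in buffer with optimized GDP, MgCl2 and NaCl, 90 min at RT. EC50 values derived by non-linear regression, averaged over several independent experiments.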

Chain of human APJ receptor (P35414 whole entry): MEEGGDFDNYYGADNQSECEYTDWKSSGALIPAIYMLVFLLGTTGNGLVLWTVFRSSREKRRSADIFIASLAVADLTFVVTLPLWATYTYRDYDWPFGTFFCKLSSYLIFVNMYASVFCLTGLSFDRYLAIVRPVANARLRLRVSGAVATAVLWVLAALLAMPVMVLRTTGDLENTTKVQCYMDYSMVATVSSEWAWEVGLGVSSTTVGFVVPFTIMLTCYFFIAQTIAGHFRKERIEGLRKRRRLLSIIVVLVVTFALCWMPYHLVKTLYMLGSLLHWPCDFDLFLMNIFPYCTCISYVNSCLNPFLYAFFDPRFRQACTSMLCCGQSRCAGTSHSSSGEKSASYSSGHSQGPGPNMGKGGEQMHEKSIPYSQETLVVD

Row | Compound | EC50 [nM]
1 | COc1cccc(OC)c1-n1c(NS(=O)(=O)[C@@H](C)[C@H](OC)c2ncc(Cl)cn2)nnc1[C@H]1C[C@@H](CO)C1 (single isomer, unassigned) [Example 123.0, (1R,2S)-1-(5-chloro-2-pyrimidinyl)-N-(4-(2,6-dimethoxyphenyl)-5-(cis-3-(hydroxymethyl)cyclobutyl)-4H-1,2,4-triazol-3-yl)-1-methoxy-2-propanesulfonamide or (1R,2S)-1-(5-chloro-2-pyrimidinyl)-N-(4-(2,6-dimethoxyphenyl)-5-(trans-3-(hydroxymethyl)cyclobutyl)-4H-1,2,4-triazol-3-yl)-1-methoxy-2-propanesulfonamide] | 5.1
2 | COc1ncnc(OC)c1-n1c(NS(=O)(=O)[C@@H](C)[C@H](OC)c2ncc(Cl)cn2)nnc1[C@H]1CC1(F)F (single isomer, unassigned) [Example 100.0, (1R,2S)-1-(5-chloropyrimidin-2-yl)-N-(5-((R)-2,2-difluorocyclopropyl)-4-(4,6-dimethoxypyrimidin-5-yl)-4H-1,2,4-triazol-3-yl)-1-methoxypropane-2-sulfonamide or (1R,2S)-1-(5-chloropyrimidin-2-yl)-N-(5-((S)-2,2-difluorocyclopropyl)-4-(4,6-dimethoxypyrimidin-5-yl)-4H-1,2,4-triazol-3-yl)-1-methoxypropane-2-sulfonamide] | 140
3 | COc1cccc(OC)c1-n1c(NS(=O)(=O)[C@@H](C)[C@H](OC)c2ncc(Cl)cn2)nnc1[C@H]1CC[C@@H](C#N)CC1 (single isomer, unassigned) [Example 199.0, (1R,2S)-1-(5-chloropyrimidin-2-yl)-N-(5-((1r,4R)-4-cyanocyclohexyl)-4-(2,6-dimethoxyphenyl)-4H-1,2,4-triazol-3-yl)-1-methoxypropane-2-sulfonamide or (1R,2S)-1-(5-chloropyrimidin-2-yl)-N-(5-((1s,4R)-4-cyanocyclohexyl)-4-(2,6-dimethoxyphenyl)-4H-1,2,4-triazol-3-yl)-1-methoxypropane-2-sulfonamide] | 8.1
4 | COc1ncnc(OC)c1-n1c(NS(=O)(=O)[C@@H](C)[C@H](OC)c2ncc(Cl)cn2)nnc1[C@@H]1CC[C@@H]1F (single isomer, unassigned) [Example 179.0, (1R,2S)-1-(5-chloropyrimidin-2-yl)-N-(4-(4,6-dimethoxypyrimidin-5-yl)-5-((1S,2S)-2-fluorocyclobutyl)-4H-1,2,4-triazol-3-yl)-1-methoxypropane-2-sulfonamide or (1R,2S)-1-(5-chloropyrimidin-2-yl)-N-(4-(4,6-dimethoxypyrimidin-5-yl)-5-((1R,2R)-2-fluorocyclobutyl)-4H-1,2,4-triazol-3-yl)-1-methoxypropane-2-sulfonamide] | 46
5 | COc1ncnc(OC)c1-n1c(NS(=O)(=O)[C@@H](C)[C@H](OC)c2ncc(Cl)cn2)nnc1[C@H]1C[C@]2(CC2(F)F)C1 (single isomer, unassigned) [Example 205.0, (1R,2S)-1-(5-chloropyrimidin-2-yl)-N-(5-((3R,5s)-1,1-difluorospiro[2.3]hexan-5-yl)-4-(4,6-dimethoxypyrimidin-5-yl)-4H-1,2,4-triazol-3-yl)-1-methoxypropane-2-sulfonamide or (1R,2S)-1-(5-chloropyrimidin-2-yl)-N-(5-((3S,5r)-1,1-difluorospiro[2.3]hexan-5-yl)-4-(4,6-dimethoxypyrimidin-5-yl)-4H-1,2,4-triazol-3-yl)-1-methoxypropane-2-sulfonamide] | 5.5
6 | COc1cccc(OC)c1-n1c(NS(=O)(=O)[C@@H](C)[C@@H](OC(C)C)c2ncc(C)cn2)nnc1[C@H]1C[C@@H](OC)C1 (racemic) [Example 227.0, (1S,2S)-N-(4-(2,6-dimethoxyphenyl)-5-(trans-3-methoxycyclobutyl)-4H-1,2,4-triazol-3-yl)-1-(5-methyl-2-pyrimidinyl)-1-(2-propanyloxy)-2-propanesulfonamide or (1S,2S)-N-(4-(2,6-dimethoxyphenyl)-5-(cis-3-methoxycyclobutyl)-4H-1,2,4-triazol-3-yl)-1-(5-methyl-2-pyrimidinyl)-1-(2-propanyloxy)-2-propanesulfonamide] | 2.7
7 | COc1cccc(OC)c1-n1c(NS(=O)(=O)[C@@H](C)[C@H](C)c2ncc(C)cn2)nnc1[C@H]1C[C@H](Cl)C1 (single isomer, unassigned) [Example 193.0, (2S,3R)-N-(5-((1r,3S)-3-chlorocyclobutyl)-4-(2,6-dimethoxyphenyl)-4H-1,2,4-triazol-3-yl)-3-(5-methylpyrimidin-2-yl)butane-2-sulfonamide or (2S,3R)-N-(5-((1s,3R)-3-chlorocyclobutyl)-4-(2,6-dimethoxyphenyl)-4H-1,2,4-triazol-3-yl)-3-(5-methylpyrimidin-2-yl)butane-2-sulfonamide] | 10
8 | COc1cccc(OC)c1-n1c(NS(=O)(=O)[C@@H](C)[C@H](OC)c2ncc(Cl)cn2)nnc1[C@H]1C[C@@H](C#N)C1 (single isomer, unassigned) [Example 121.0, (1R,2S)-1-(5-chloro-2-pyrimidinyl)-N-(5-(cis-3-cyanocyclobutyl)-4-(2,6-dimethoxyphenyl)-4H-1,2,4-triazol-3-yl)-1-methoxy-2-propanesulfonamide or (1R,2S)-1-(5-chloro-2-pyrimidinyl)-N-(5-(trans-3-cyanocyclobutyl)-4-(2,6-dimethoxyphenyl)-4H-1,2,4-triazol-3-yl)-1-methoxy-2-propanesulfonamide] | 5.4
9 | COc1cccc(OC)c1-n1c(NS(=O)(=O)[C@@H](C)[C@H](OC)c2ncc(Cl)cn2)nnc1C1CC(F)(F)C1 [Example 147.0] | 6.4
10 | COCC1(n2c(NS(=O)(=O)[C@@H](C)[C@H](OC)c3ncc(Cl)cn3)nnc2[C@H]2C[C@H](CO)C2)CC1 (single isomer, unassigned) [Example 132.0, (1R,2S)-1-(5-chloro-2-pyrimidinyl)-N-(5-(trans-3-(hydroxymethyl)cyclobutyl)-4-(1-(methoxymethyl)cyclopropyl)-4H-1,2,4-triazol-3-yl)-1-methoxy-2-propanesulfonamide or (1R,2S)-1-(5-chloro-2-pyrimidinyl)-N-(5-(cis-3-(hydroxymethyl)cyclobutyl)-4-(1-(methoxymethyl)cyclopropyl)-4H-1,2,4-triazol-3-yl)-1-methoxy-2-propanesulfonamide] | 1270
11 | COc1cccc(OC)c1-n1c(NS(=O)(=O)[C@@H](C)[C@H](OC)c2ncc(Cl)cn2)nnc1[C@H]1C[C@H](C(F)(F)F)C1 (single isomer, unassigned) [Example 150.0, (1R,2S)-1-(5-chloropyrimidin-2-yl)-N-(4-(2,6-dimethoxyphenyl)-5-((1r,3S)-3-(trifluoromethyl)cyclobutyl)-4H-1,2,4-triazol-3-yl)-1-methoxypropane-2-sulfonamide or (1R,2S)-1-(5-chloropyrimidin-2-yl)-N-(4-(2,6-dimethoxyphenyl)-5-((1s,3R)-3-(trifluoromethyl)cyclobutyl)-4H-1,2,4-triazol-3-yl)-1-methoxypropane-2-sulfonamide] | 6.8
12 | C=C1CC(c2nnc(NS(=O)(=O)[C@@H](C)[C@H](OC)c3ncc(Cl)cn3)n2-c2c(OC)ncnc2OC)C1 [Example 118.0] | 1
13 | (1R,2S)-1-(5-chloropyrimidin-2-yl)-N-(4-(2,6-dimethoxyphenyl)-5-((R)-2,2-dimethylcyclopropyl)-4H-1,2,4-triazol-3-yl)-1-methoxypropane-2-sulfonamide or (1R,2S)-1-(5-chloropyrimidin-2-yl)-N-(4-(2,6-dimethoxyphenyl)-5-((S)-2,2-dimethylcyclopropyl)-4H-1,2,4-triazol-3-yl)-1-methoxypropane-2-sulfonamide [Example 22.0] | 0.29
14 | COCC1(n2c(NS(=O)(=O)[C@@H](C)[C@H](OC)c3ncc(Cl)cn3)nnc2C2CCC2)CC1 [Example 96.0] | 30
15 | COc1cccc(OC)c1-n1c(NS(=O)(=O)[C@@H](C)[C@H](OCC(F)F)c2ncc(C)cn2)nnc1C1CCC1 [Example 209.0] | 18
16 | COc1ncnc(OC)c1-n1c(NS(=O)(=O)[C@@H](C)[C@@H](OC(C)C)c2ncc(Cl)cn2)nnc1[C@@H]1CC[C@@H]1C(F)F (single isomer, unassigned) [Example 167.0, (1S,2S)-1-(5-chloropyrimidin-2-yl)-N-(5-((1R,2S)-2-(difluoromethyl)cyclobutyl)-4-(4,6-dimethoxypyrimidin-5-yl)-4H-1,2,4-triazol-3-yl)-1-isopropoxypropane-2-sulfonamide or (1S,2S)-1-(5-chloropyrimidin-2-yl)-N-(5-((1S,2R)-2-(difluoromethyl)cyclobutyl)-4-(2,6-dimethoxypyrimidin-5-yl)-4H-1,2,4-triazol-3-yl)-1-isopropoxypropane-2-sulfonamide] | 13
17 | COc1ncnc(OC)c1-n1c(NS(=O)(=O)[C@@H](C)[C@H](OC)c2ncc(Cl)cn2)nnc1C1CCC1 [Example 7.0, (1R,2S)-1-(5-chloro-2-pyrimidinyl)-N-(5-cyclobutyl-4-(4,6-dimethoxy-5-pyrimidinyl)-4H-1,2,4-triazol-3-yl)-1-methoxy-2-propanesulfonamide] | 66
18 | COc1ncnc(OC)c1-n1c(NS(=O)(=O)[C@@H](C)[C@H](OC)c2ncc(Cl)cn2)nnc1[C@H]1CC[C@H]1C(F)F (racemic) [Example 146.0] | 26
19 | COc1cccc(OC)c1-n1c(NS(=O)(=O)[C@@H](C)[C@H](OC)c2ncc(Cl)cn2)nnc1[C@H]1CC(=O)C1(C)C (single isomer, unassigned) [Example 196.0, (1R,2S)-1-(5-chloropyrimidin-2-yl)-N-(4-(2,6-dimethoxyphenyl)-5-((R)-2,2-dimethyl-3-oxocyclobutyl)-4H-1,2,4-triazol-3-yl)-1-methoxypropane-2-sulfonamide or (1R,2S)-1-(5-chloropyrimidin-2-yl)-N-(4-(2,6-dimethoxyphenyl)-5-((S)-2,2-dimethyl-3-oxocyclobutyl)-4H-1,2,4-triazol-3-yl)-1-methoxypropane-2-sulfonamide] | 330
